From patent publication US20260217691A1, “FOXM1 INHIBITORS AND THEIR USE IN TREATING CANCERS” (THE BOARD OF TRUSTEES OF THE UNIVERSITY OF ILLINOIS, priority 2022, published 2026)

Experiments:
FOXM1 [1] = molecular target: T1, FOXM1 (Homo sapiens, UniProt Q08050); assay: FOXM1 protein levels by immunoblotting in leukemia/AML cell lines; type: cell-based; parameters: Total protein samples obtain from treated cells were analyzed for FOXM1 protein levels via immunoblotting; endogenous in cells; host or cells: KG-1, HL-60, K562, THP-1 leukemia cell lines
T1 sequence (Q08050 1-763): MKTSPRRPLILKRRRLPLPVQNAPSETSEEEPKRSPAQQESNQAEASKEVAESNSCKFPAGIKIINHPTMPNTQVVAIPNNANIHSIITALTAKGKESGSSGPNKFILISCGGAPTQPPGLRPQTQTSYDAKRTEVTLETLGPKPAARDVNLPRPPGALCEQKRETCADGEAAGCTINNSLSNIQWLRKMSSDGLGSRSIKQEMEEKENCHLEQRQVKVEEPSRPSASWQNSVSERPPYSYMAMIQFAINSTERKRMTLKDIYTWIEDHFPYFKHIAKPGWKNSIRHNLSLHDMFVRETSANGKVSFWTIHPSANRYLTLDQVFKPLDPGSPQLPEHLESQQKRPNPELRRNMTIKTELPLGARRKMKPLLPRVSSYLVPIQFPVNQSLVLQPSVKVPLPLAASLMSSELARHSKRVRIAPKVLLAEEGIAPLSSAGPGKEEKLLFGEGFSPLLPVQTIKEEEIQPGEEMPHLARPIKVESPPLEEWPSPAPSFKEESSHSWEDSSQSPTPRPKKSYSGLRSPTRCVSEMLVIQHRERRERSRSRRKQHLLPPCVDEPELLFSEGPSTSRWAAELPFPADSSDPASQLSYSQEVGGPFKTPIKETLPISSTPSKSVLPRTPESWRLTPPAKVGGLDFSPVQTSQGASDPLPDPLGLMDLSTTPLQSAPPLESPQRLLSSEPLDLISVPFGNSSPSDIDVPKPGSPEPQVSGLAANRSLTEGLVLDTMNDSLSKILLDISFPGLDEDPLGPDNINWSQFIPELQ
Protocol: [a] Leukemia cells, KG-1, HL-60 and K562 were treated with increasing concentrations of STL427944 for 24 hrs. […] [b] THP1 and KG-1 cells were treated with indicated concentrations of venetoclax and STL427944 alone or in combination for 24 hrs. [c] KG-1 and K562 cells were treated with indicated concentrations of cytarabine and STL427944 alone or in combination for 24 hrs.
FIG. 8. STL427944 treatment of human leukemia cell lines suppress FOXM1 protein expression. (a) STL427944 treatment of human leukemia cell lines inhibit FOXM1 protein expression and sensitize cells to venetoclax treatment. […] (b) Stable shRNA-mediated FOXM1 knockdown prominently sensitizes KG-1 cells to cytotoxic effect of venetoclax. (c, d) combined treatment with STL427944 and venetoclax suppresses FOXM1 in KG-1 and THP-1 cells and synergistically promotes cytotoxic effects similarly to FOXM1 knockdown. Total protein was isolated from cells immediately after the treatment and analyzed via immunoblotting with FOXM1 antibodies). Apoptosis induction was estimated based on caspase-3 cleavage.
FIGS. 9A and 9B: Novel FOXM1 inhibitor STL001 sensitizes Leukemia cells to chemotherapy agents. [a] Structural formula of novel FOXM1 inhibitor STL001. [b] Leukemia cells, KG-1, HL-60, and K562 were treated with increasing concentrations of STL001 for 24 hrs. […] [c] KG-1 cells were treated with indicated concentrations of Laptomycin B, Chloroquine, and STL001 for 24 hrs. […] [d] KG-1, HL-60, and K562 cells were treated with indicated concentrations of venetoclax and STL001 alone or in combination for 24 hrs. [e] KG-1, HL-60, and K562 cells were treated with indicated concentrations of cytarabine and STL alone or in combination for 24 hrs.
FIGS. 13A-13H STL001 is a novel FOXM1 inhibitor that sensitizes leukemia cells to standard cytotoxic and bcl2 inhibitor therapies. FIG. 13A AML cell line KG-1 treated with precursor compound STL427944. FIG. 3B AML cell lines KG-1, HL-60, and K562 were treated with increasing concentrations of STL001 for 24 h. Total protein samples obtained from treated cells were analyzed for FOXM1 protein levels using immunoblotting; β-actin was used as the internal loading control. FIG. 13C KG-1, HL-60, and K562 cells were treated with indicated concentrations of venetoclax and STL001 alone or in combination for 24 h. FIG. 13D KG-1, HL-60, and K562 cells were treated with indicated concentrations of cytarabine and STL001 alone or in combination for 24 h. […] FIG. 13E KG-1 cells were treated with indicated concentrations of Leptomycin B, Chloroquine, and STL001 for 24 h. Total protein samples obtained from treated cells were analyzed for FOXM1 protein levels via immunoblotting; β-actin was used as an internal loading control. FIG. 13F KG-1 cell lines with shRNA knockdown of FOXM1 were treated with venetoclax and STL001 and compared to parental cells. FIG. 13G Real-time PCR-based expression profiling for canonical FOXM1 target genes was performed on primary AML mononuclear cells (n=5) treated ex vivo with STL001 5 μM for 24 h. Mean and standard error of the delta Ct for DMSO or treatment group are plotted for each gene. P-value is estimated by two-tailed paired t-test. Asterisks denote P<0.05. FIG. 13H Treatment of peripheral blood mononuclear cells with STL001 for 24 h followed by immunohistochemistry for FOXM1. Slides were scanned on an Aperio AT2 brightfield scanner and images were analyzed using HALO 2.0 software. Hematoxylin counterstain was used to segment nuclei within the ROIs and to establish an accurate cell count. Percent cells with nuclear FOXM1 expression compared between DMSO and STL001 treated cells. P-value is based on one-tailed paired t-test.

FOXM1 [2] = molecular target: T1, FOXM1; assay: Immunohistochemistry for nuclear FOXM1 in primary AML samples treated ex vivo; type: cell-based; parameters: Total protein samples obtain from treated cells were analyzed for FOXM1 protein levels via immunoblotting; endogenous in cells; host or cells: KG-1, HL-60, K562, THP-1 leukemia cell lines; conditions: primary AML samples (n=4), 24 h, 43% for DMSO, p=0.06
Protocol: FIGS. 13A-13H STL001 is a novel FOXM1 inhibitor that sensitizes leukemia cells to standard cytotoxic and bcl2 inhibitor therapies. FIG. 13A AML cell line KG-1 treated with precursor compound STL427944. FIG. 3B AML cell lines KG-1, HL-60, and K562 were treated with increasing concentrations of STL001 for 24 h. Total protein samples obtained from treated cells were analyzed for FOXM1 protein levels using immunoblotting; β-actin was used as the internal loading control. FIG. 13C KG-1, HL-60, and K562 cells were treated with indicated concentrations of venetoclax and STL001 alone or in combination for 24 h. FIG. 13D KG-1, HL-60, and K562 cells were treated with indicated concentrations of cytarabine and STL001 alone or in combination for 24 h. […] Total protein samples obtained from treated cells were analyzed for FOXM1 protein levels via immunoblotting; β-actin was used as an internal loading control. […] Slides were scanned on an Aperio AT2 brightfield scanner and images were analyzed using HALO 2.0 software. […]
In addition, primary AML samples (n=4) were treated ex vivo with STL001 and slides were scanned on an Aperio AT2 brightfield scanner and images were analyzed using HALO 2.0 software. The % of nuclei staining positive for FOXM1 was calculated per cell and averaged per slide to analyze FOXM1 protein expression and localization. […]

For O=C(Oc1cccc(-c2ccn(-c3nc(Nc4ccccc4)nc(N4CCOCC4)n3)n2)c1)c1ccco1 [STL001], the “concentration suppressing FOXM1” value (FOXM1 [1]; AML cell lines) was 0.5 µM, the FOXM1 localization (FOXM1 [1]; AML cells) was “localizes FOXM1 to the cytoplasm” and the “lowest concentration with dose-dependent inhibition of FOXM1 protein expression” value (FOXM1 [1]; KG-1, HL-60, K562, 24 h) was 500 nM. For the same compound, the “improvement in efficiency to suppress FOXM1 / increased potency as FOXM1 inhibitor versus STL427944” value (FOXM1 [1]; estimated, relative to STL427944) was “up to 50 fold”, the FOXM1 protein levels (FOXM1 [1]; leukemia cell lines, increasing concentrations, 24 h) was “dose-dependent inhibition of FOXM1 protein expression” and the “% of nuclei expressing FOXM1 after treatment” value (FOXM1 [2]) was 29%.
